{"source": "patent US10765647B2", "about": "“Composition for treating diabetes, containing extract of yukmijihwangtang” (COMPREHENSIVE AND INTEGRATIVE MEDICINE INSTITUTE, priority 2013, dated 2020)", "key": {"STZ-induced diabetes rat [1]": {"test_system": "STZ-induced diabetes rat", "test": "STZ-induced diabetes rats: body weight and body weight gain", "assay_type": "in vivo, Sprague-Dawley (SD) rats", "conditions": "vs STZ control, YMJHT 400 mg/kg", "protocol": "(§1) As the laboratory animals, Sprague-Dawley (SD), Slc:SD rats (6-week-old females, SLC, Shizuoka, Japan) were used, an experiment method was briefly illustrated in FIG. 5A, and the design of experimental groups is shown in FIG. 5B.\n(§2) 105 SD rats were purchased, and 21 days after STZ administration, only rats having uniform body weights ([…]) and blood sugar levels (257˜358 mg/dl) were selected. Among those, 8 rats per group were used in the experiment, and separate 8 rats were also prepared as the intact vehicle control (body weight: 200˜262 g; blood sugar level: 88˜100 mg/dl).\n(§3) STZ was diluted with 50 mM citrate buffer (pH 6.0), and the resultant diluent was peritoneally administered once at a dose of 60 mg/kg/5 ml to induce diabetes, and in the intact vehicle control, instead of STZ, the same dose of citrate buffer was solely administered in the same route.\n(1) Change in body weight: Body weight gains during diabetes induction and administration of a candidate material for 28 days"}, "STZ-induced diabetes rat [2]": {"test_system": "STZ-induced diabetes rat", "test": "STZ-induced diabetes rats: antidiabetic effect (blood sugar, pancreas)", "assay_type": "in vivo, Sprague-Dawley (SD) rats", "conditions": "vs STZ control, YMJHT 400 mg/kg", "protocol": "as §1, §2, §3\n(2) Antidiabetic effect: Change in blood sugar level, morphological change in pancreas tissue—changes in the number and diameter of pancreatic islets, and numerical changes in insulin and glucagon immunoreactive cells\n(§4) To clarify degrees of inducing diabetes and diabetic complications, blood sugar levels was measured at 21 days after the STZ administration and 28 days after the administration of a candidate material, and then a difference between them was estimated. Also, to minimize a difference between organ weights depending on a body weight, an absolute weight was measured, and then a ratio to the body weight, that is, a relative weight, was calculated."}, "STZ-induced diabetes rat [3]": {"test_system": "STZ-induced diabetes rat", "test": "STZ-induced diabetes rats: liver protecting effect", "assay_type": "in vivo, Sprague-Dawley (SD) rats", "conditions": "vs STZ control; single treated: metformin 500 mg/kg, YMJHT 400 mg/kg; daily 28 days", "protocol": "as §1, §2, §3\n(3) Liver protecting effect: changes in the liver weight, blood AST and ALT contents, histopathological findings on the liver—(Degeneration rate of the liver: ratio of degenerated liver cells per mm^2 of hepatocyte, number of liver cells: number of liver cells observed per mm^2 of hepatocyte).\nas §4"}, "STZ-induced diabetes rat [4]": {"test_system": "STZ-induced diabetes rat", "test": "STZ-induced diabetes rats: kidney protecting effect", "assay_type": "in vivo, Sprague-Dawley (SD) rats", "conditions": "vs STZ control; single treated: metformin 500 mg/kg, YMJHT 400 mg/kg; daily 28 days", "protocol": "as §1, §2, §3\n(4) Kidney protecting effect: kidney weights, changes in blood BUN and creatinine, histopathological findings on kidney—numbers of degenerated renal tubules and glomeruli\nas §4"}, "STZ-induced diabetes rat [5]": {"test_system": "STZ-induced diabetes rat", "test": "STZ-induced diabetes rats: antihyperlipidemic effect", "assay_type": "in vivo, Sprague-Dawley (SD) rats", "conditions": "vs STZ control; single treated: metformin 500 mg/kg, YMJHT 400 mg/kg; daily 28 days", "protocol": "as §1, §2, §3"}, "STZ-induced diabetes rat [6]": {"test_system": "STZ-induced diabetes rat", "test": "STZ-induced diabetes rats: immune activity effect (thymus, spleen)", "assay_type": "in vivo, Sprague-Dawley (SD) rats", "conditions": "vs STZ control; single treated: metformin 500 mg/kg, YMJHT 400 mg/kg; daily 28 days", "protocol": "as §1, §2, §3\n(6) Immune activity effect: thymus and spleen weights and histopathological findings—changes in spleen thickness, the number of white pulps and diameter, changes in thymus lobules and cortex thicknesses\nas §4"}, "STZ-induced diabetes rat [7]": {"test_system": "STZ-induced diabetes rat", "test": "STZ-induced diabetes rats: ocular protecting effect", "assay_type": "in vivo, Sprague-Dawley (SD) rats", "conditions": "vs STZ control; single treated: metformin 500 mg/kg, YMJHT 400 mg/kg; daily 28 days", "protocol": "as §1, §2, §3"}, "STZ-induced diabetes rat [8]": {"test_system": "STZ-induced diabetes rat", "test": "STZ-induced diabetes rats: antioxidative defense system in kidney", "assay_type": "in vivo, Sprague-Dawley (SD) rats", "conditions": "vs STZ control; single treated: metformin 500 mg/kg, YMJHT 400 mg/kg; daily 28 days", "protocol": "as §1, §2, §3\n(8) Change in antioxidative defense system in kidney: lipid peroxidation in kidney (nM of malondialdehyde (MDA)/g protein), endogenous antioxidant—glutathione (GSH) content (nM/g protein), antioxidant enzyme—Changes in catalase and superoxide dismutase (SOD) activities (U/mg protein)"}, "in vivo": {"test": "in vivo", "conditions": "male, SD, rat, plasma, po, 500 mg/kg"}, "[9]": {"conditions": "before administration, single treated groups: metformin 500 mg/kg"}, "[10]": {"conditions": "single treated: metformin 500 mg/kg, daily 28 days"}}, "data": [{"smiles": "CN(C)C(=N)N=C(N)N", "note": "[metformin]", "values": [{"measurement": "Body weight gains during the diabetes induction, change", "setting": "STZ-induced diabetes rat [1]; [9]", "result": 45.45, "unit": "%"}, {"measurement": "Body weight gains during the 28-day administration, change", "setting": "STZ-induced diabetes rat [1]; [10]", "result": 193.31, "unit": "%"}, {"measurement": "Blood sugar level at 21 days after the STZ administration, change", "setting": "STZ-induced diabetes rat [2]; [9]", "result": 1.68, "unit": "%"}, {"measurement": "Blood sugar level at 28 days after the STZ administration, change", "setting": "STZ-induced diabetes rat [2]; [10]", "result": "−27.25", "unit": "%"}, {"measurement": "Blood sugar variation from 21 days after the STZ administration to 28 days after the administration of a candidate material, change", "setting": "STZ-induced diabetes rat [2]; [10]", "result": "−59.39", "unit": "%"}, {"measurement": "Mean diameters of the pancreatic islets, change", "setting": "STZ-induced diabetes rat [2]; [10]", "result": 97.80, "unit": "%"}, {"measurement": "Numbers of insulin immunoreactive cells in the pancreatic islet, change", "setting": "STZ-induced diabetes rat [2]; [10]", "result": 202.99, "unit": "%"}, {"measurement": "Numbers of pancreatic islets per unit area, change", "setting": "STZ-induced diabetes rat [2]; [10]", "result": 120.93, "unit": "%"}, {"measurement": "Numbers of the glucagon immunoreactive cells in the pancreatic islet, change", "setting": "STZ-induced diabetes rat [2]; [10]", "result": "−27.78", "unit": "%"}, {"measurement": "Pancreas absolute weights, change", "setting": "STZ-induced diabetes rat [2]; [10]", "result": 7.95, "unit": "%"}, {"measurement": "Relative pancreas weights with respect to the body weight, change", "setting": "STZ-induced diabetes rat [2]; [10]", "result": "−7.49", "unit": "%"}, {"measurement": "Absolute weight of the liver, change", "setting": "STZ-induced diabetes rat [3]", "result": "−14.38", "unit": "%"}, {"measurement": "Blood ALT content, change", "setting": "STZ-induced diabetes rat [3]", "result": "−32.72", "unit": "%"}, {"measurement": "Blood AST content, change", "setting": "STZ-induced diabetes rat [3]", "result": "−32.82", "unit": "%"}, {"measurement": "Hepatic degeneration rate, change", "setting": "STZ-induced diabetes rat [3]", "result": "−29.61", "unit": "%"}, {"measurement": "Number of mean hepatocytes per unit area, change", "setting": "STZ-induced diabetes rat [3]", "result": 60.58, "unit": "%"}, {"measurement": "Relative weight of the liver, change", "setting": "STZ-induced diabetes rat [3]", "result": "−27.69", "unit": "%"}, {"measurement": "Absolute weight of the kidney, change", "setting": "STZ-induced diabetes rat [4]", "result": "−21.29", "unit": "%"}, {"measurement": "Blood BUN content, change", "setting": "STZ-induced diabetes rat [4]", "result": "−31.69", "unit": "%"}, {"measurement": "Blood creatinine content, change", "setting": "STZ-induced diabetes rat [4]", "result": "−31.29", "unit": "%"}, {"measurement": "Number of degenerated glomeruli, change", "setting": "STZ-induced diabetes rat [4]", "result": "−36.94", "unit": "%"}, {"measurement": "Number of degenerated renal tubules, change", "setting": "STZ-induced diabetes rat [4]", "result": "−29.90", "unit": "%"}, {"measurement": "Relative weight of the kidney, change", "setting": "STZ-induced diabetes rat [4]", "result": "−32.41", "unit": "%"}, {"measurement": "Blood HDL content, change", "setting": "STZ-induced diabetes rat [5]", "result": 27.12, "unit": "%"}, {"measurement": "Blood LDL content, change", "setting": "STZ-induced diabetes rat [5]", "result": "−29.08", "unit": "%"}, {"measurement": "Total cholesterol content in blood, change", "setting": "STZ-induced diabetes rat [5]", "result": "−30.57", "unit": "%"}, {"measurement": "Triglyceride content in blood, change", "setting": "STZ-induced diabetes rat [5]", "result": "−29.72", "unit": "%"}, {"measurement": "Absolute weight of the spleen, change", "setting": "STZ-induced diabetes rat [6]", "result": 31.35, "unit": "%"}, {"measurement": "Absolute weight of the thymus, change", "setting": "STZ-induced diabetes rat [6]", "result": 73.03, "unit": "%"}, {"measurement": "Mean diameter of the white pulp, change", "setting": "STZ-induced diabetes rat [6]", "result": 101.18, "unit": "%"}, {"measurement": "Number of white pulps per unit area (100 mm^2), change", "setting": "STZ-induced diabetes rat [6]", "result": 76.53, "unit": "%"}, {"measurement": "Relative weight of the spleen, change", "setting": "STZ-induced diabetes rat [6]", "result": 12.17, "unit": "%"}, {"measurement": "Relative weight of the thymus, change", "setting": "STZ-induced diabetes rat [6]", "result": 50.71, "unit": "%"}, {"measurement": "Total thickness of the spleen, change", "setting": "STZ-induced diabetes rat [6]", "result": 36.43, "unit": "%"}, {"measurement": "Total thickness of the thymus cortex, change", "setting": "STZ-induced diabetes rat [6]", "result": 78.00, "unit": "%"}, {"measurement": "Total thickness of the thymus lobules, change", "setting": "STZ-induced diabetes rat [6]", "result": 198.88, "unit": "%"}, {"measurement": "Lens damage score, change", "setting": "STZ-induced diabetes rat [7]", "result": "−33.33", "unit": "%"}, {"measurement": "Number of blood vessels present in an internal limiting membrane, change", "setting": "STZ-induced diabetes rat [7]", "result": "−44.55", "unit": "%"}, {"measurement": "Observer-based scores for cataract, change", "setting": "STZ-induced diabetes rat [7]", "result": "−38.89", "unit": "%"}, {"measurement": "Quantitative image scores for cataract, change", "setting": "STZ-induced diabetes rat [7]", "result": "−40.56", "unit": "%"}, {"measurement": "Thickness of the damaged part of the lens, change", "setting": "STZ-induced diabetes rat [7]", "result": "−46.34", "unit": "%"}, {"measurement": "Thickness of the inner nuclear layer in the retina, change", "setting": "STZ-induced diabetes rat [7]", "result": 44.29, "unit": "%"}, {"measurement": "Thickness of the plexiform layer in the retina, change", "setting": "STZ-induced diabetes rat [7]", "result": 32.03, "unit": "%"}, {"measurement": "Total thickness of the retina, change", "setting": "STZ-induced diabetes rat [7]", "result": 33.45, "unit": "%"}, {"measurement": "Catalase activity in the renal tissue, change", "setting": "STZ-induced diabetes rat [8]", "result": 48.59, "unit": "%"}, {"measurement": "Content of the endogenous antioxidant in the renal tissue, GSH, change", "setting": "STZ-induced diabetes rat [8]", "result": 64.65, "unit": "%"}, {"measurement": "MDA content in the kidney tissue (lipid peroxidation indicator), change", "setting": "STZ-induced diabetes rat [8]", "result": "−32.56", "unit": "%"}, {"measurement": "SOD activity in the renal tissue, change", "setting": "STZ-induced diabetes rat [8]", "result": 51.47, "unit": "%"}, {"measurement": "Cmax", "setting": "in vivo", "result": "20200 ± 3420", "unit": "ng/mL"}]}]}
